pEC50: −log10 of the molar value. Entries after “also recorded” stand apart in the source; their conditions may differ. Like-named read-outs stand apart in the source and are kept apart here.
Key:
Assay type in all cases: cell-based
[1] = tested on: PKC isoforms in A549 cells; assay: Activation of PKC isoforms, Western blot, A549; conditions: 30 minutes; for P-PKC (pan)(βII Ser660) and P-PKCα/β (Thr638/641): high levels already in DMSO treated cells
Protocol: (§1) A549 lung cancer cells (˜3 million cells) were seeded in 10 cm tissue culture dishes and grown overnight. Cells were then treated with different drugs at indicated concentrations (see FIG. 9A for global activation of PKC and FIG. 10 for activation of PKC isoforms) for 30 minutes. Panc2.13 pancreatic cells (˜5 million) were seeded and treated as in FIG. 9B for global activation of PKC. Cell lysate preparation, protein quantitation, SDS-PAGE, and Western blotting procedures are described in Example 2. Primary antibodies used in this Example and later Examples of this application are shown in Table A. Western blot membranes were scanned using Odyssey® Imaging System (Licor Biosciences) if secondary antibodies Anti-mouse IgG Dylight 800 conjugate or Anti-rabbit IgG DyLight 680 conjugate (1:10000)(Cell signaling or similar IR 2nd antibodies from different vendors) were used. Alternatively, Imagequant LAS4000 (GE) was used to scan membranes if secondary antibodies Anti-mouse IgG HRP conjugate or Anti-rabbit IgG HRP conjugate (dilutions from 1:2000-1:10000) were used.

A549 cells = assay: Soft agar colony formation assay; conditions: 7-10 days, 9-point dilution series
Protocol: To prepare the base agar layer (0.6%), melted 1.2% agar solution was mixed 1:1 (v/v) with 2×DMEM/20% FBS medium in a tube by inverting several times and 50 μL of the mixture was immediately transferred to a well in a 96-well flat-bottom microplate. The plate was placed at 4° C. for 30 minutes to allow the base agar layer to solidify. Then, the cell agar layer (agar 0.4%) was prepared by transferring 75 μL of the cell and agar mixture containing 1:1:1 (v/v/v) of 1.2% agar solution, 2×DMEM/20% FBS and cell suspension (0.4-4×10^5/mL) to each well of the plates so that each well contained 1000-10000 cells per well. The plates were placed at 4° C. for 15 minutes and then 75 μL of media were added to each well. After incubating the plates overnight in a CO2 incubator, 50 μL of media with or without 5× final concentrations of compounds were added to each well. Each compound was tested in 9-point 3-fold dilution series. The plates were incubated for 7-10 days at 37° C. At the end of incubation period, 28 μL of Calcein AM solution (5 μM) was added to the center of each well. The plates were incubated at 37° C. for 45 minutes before scanning on Acumen (TTP Labtech). Each compound was tested in triplicates. Data was analyzed and compound EC50s were calculated using GraphPad Prism 5.

SW900 = assay: Proliferation assay (CellTiter Glo), SW900; conditions: SW900 (K-ras: G12V)
Protocol: (§2) Briefly, cells at a density of 1,000-10,000 cells/well were seeded in 96-well plates and incubated at 37′C for 24 hours. A series of 9 different concentrations of compound stocks (500×) were created by 3-fold serial dilution in DMSO. These compounds were further diluted in culture media and then added to cells so that the final DMSO concentration was 0.2%. After 96 hours of incubation, 50 μL of CellTiter Glo reagent (Promega) was added to each well and luminescence was measured after 10 minutes using EnVision (PerkinElmer). […] The dose range for most compounds was 4.6 nM-30 μM. The dose ranges for some compounds were adjusted downward to 0.46 nM-3 μM or 0.08 nM-0.5 μM or 0.03 nM-0.2 μM. Luminescence from cells treated with […] alone was set as Max and % of inhibition was calculated as follows: Inhibition %=(Max-Sample value)/Max*100. Data was analyzed using XL-fit software (ID Business Solutions Ltd.) and EC50, relative EC50, and % of top inhibition were calculated.
(§3) Other cancer cell lines having wild-type K-ras status and K-ras mutation at G12 were also screened using the PKC activator compounds. […] K-104 was tested in a range of 0.03 nM-0.2 μM. […] The dose ranges were adjusted downward to 0.46 nM-3 μM for K-102 and 0.08 nM-0.5 μM for K-103 for some cell lines.

[2] = tested on: PKC substrates in A549 cells; assay: Global PKC activation (phosphorylated PKC substrates), Western blot, A549; conditions: 30 minutes, Phospho-PKC substrate Motif MultiMab
Protocol: as §1

BxPC-3 = assay: Proliferation assay (CellTiter Glo), BxPC-3; conditions: BxPC-3 (WT K-ras)
Protocol: as §2, §3

[3] = tested on: PKC substrates in Panc2.13 cells; assay: Global PKC activation (phosphorylated PKC substrates), Western blot, Panc2.13; conditions: Phospho-(Ser) PKC Substrate Antibody
Protocol: as §1

SW620 = assay: Proliferation assay (CellTiter Glo), SW620; conditions: for Top inhibition %: 96 hours; for pEC50: read-out: Ab EC50
Protocol: as §2, with “calculated. The results are shown in Tables 3-6 for pancreatic cancer, lung cancer, colon/gastric cancer, and leukemia cell lines.” for “calculated.”

Capan-1 = assay: Proliferation assay (CellTiter Glo), Capan-1; conditions: for Top inhibition %: 96 hours
Protocol: as §2, with “calculated. The results are shown in Tables 3-6 for pancreatic cancer, lung cancer, colon/gastric cancer, and leukemia cell lines.” for “calculated.”

H358 = assay: Proliferation assay (CellTiter Glo), H358; conditions: for Top inhibition %: 96 hours
Protocol: as §2, with “calculated. The results are shown in Tables 3-6 for pancreatic cancer, lung cancer, colon/gastric cancer, and leukemia cell lines.” for “calculated.”

PKCδ = PKCδ Tyr311 phosphorylation in A549, HCT116, SW620, Panc02.13 cells, Western blot; conditions: 30 minutes
Protocol: Non-cancerous lung fibroblast cell line HFL-1 or cancer cells (2-8 million cells) were seeded in 10 cm dishes and grown overnight so that the cells were about 40-80% confluent before treatment with the compound. Cells were then treated with different drugs at indicated concentrations (see descriptions for FIG. 11 and FIG. 12) for 30 minutes. Cell lysate preparation, protein quantitation, SDS-PAGE, and Western blotting procedures are described in Example 2 and 4. Primary antibodies used in this Example and later Examples of this application are shown in Table A. Secondary antibodies Anti-mouse IgG HRP conjugate or Anti-rabbit IgG HRP conjugate (dilutions from 1:2000-1:10000) were used. Western blot membranes were scanned using Imagequant LAS4000 (GE). The results are shown in FIG. 11A and FIG. 11B for HFL-1 cells and FIG. 11C and FIG. 12 for A549 cells.

[4] = absolute EC50, 96 hours, read-out: Ab EC50
[5] = relative EC50, 96 hours, read-out: Re EC50

Compound | P-PKCδ (Thr505) and P-PKCδ/θ (Ser643/676) [1] | P-PKC (pan)(βII Ser660) and P-PKCα/β (Thr638/641) [1] | number of colonies formed in soft agar (A549 cells) | Top inhibition % (SW900) | phosphorylation of PKC substrates (global activation of PKC) [2] | Top inhibition % (BxPC-3) | phosphorylation of PKC substrates (global activation of PKC) [3] | Top inhibition % (SW620) | Top inhibition % (Capan-1) | Top inhibition % (H358) | PKCδ activation, phosphorylation at Tyr311 (PKCδ) | other results
CC(=O)O[C@@]12C[C@@H](C)[C@]3(O)C4C=C(C)C(=O)[C@@]4(O)CC(CO)=C[C@H]3[C@@H]1C2(C)C (stereo partly drawn) [Compound K-101A, Prostratin] | dose-dependent increases | no further increases | reduced the number of colonies | 7.1% | induced dose-dependent phosphorylation | 40.11% | induced dose-dependent phosphorylation | 0.0% | 37.1% | 56.4% | observed for cell lines HCT116 and SW620 but not as significantly for cell lines A549 and Pan 02,13; also recorded: observed for cell lines HCT116 and SW620 but not as significantly for cell lines A549 and Panc02.13 | pEC50 (SW620; Homo sapiens, SW-620, absolute EC50, 96 hours): < 4.52; pEC50 (Capan-1; Homo sapiens, absolute EC50, 96 hours, read-out: Ab EC50): < 4.52; pEC50 (Capan-1; Homo sapiens, relative EC50, 96 hours, read-out: Re EC50): 6.51; pEC50 (H358; Homo sapiens, NCI-H358, absolute EC50, 96 hours, read-out: Ab EC50): 5.31; pEC50 (H358; Homo sapiens, NCI-H358, relative EC50, 96 hours, read-out: Re EC50): 6.80
CC(=O)OCC1=C[C@H]2[C@@H]3C(C)(C)[C@]3(OC(C)=O)C[C@@H](C)[C@]2(O)C2C=C(C)C(=O)[C@@]2(O)C1 (stereo partly drawn) [Compound K-101E] | no effects |  | reduced the number of colonies | 25.4% | nearly no effect | 38.87% | nearly no effect | 0.0% | 44.6% | 47.9% |  | pEC50 (SW620; absolute EC50, 96 hours): < 4.52; pEC50 (Capan-1; [4]): < 4.52; pEC50 (Capan-1; [5]): 6.08; pEC50 (H358; [4]): < 4.52; pEC50 (H358; [5]): 5.90
C/C=C(/C)C(=O)O[C@H]1C(C)=C[C@]23C(=O)[C@@H](C=C(CO)[C@@H](O)[C@]12O)[C@H]1[C@@H](C[C@H]3C)C1(C)C [Compound K-102, Ingenol-3-angelate, reference compound] | dose-dependent increases | no further increases | reduced the number of colonies |  | induced dose-dependent phosphorylation |  | induced dose-dependent phosphorylation |  |  |  | observed for PKC activator insensitive cell lines HCT116 and SW620 but not as significantly for sensitive cell lines A549 and Pan 02,13; also recorded: observed for cell lines HCT116 and SW620 but not as significantly for cell lines A549 and Panc02.13 | 
